Measurements reported in patent publication EP1140904B1, “FARNESYL PROTEIN TRANSFERASE INHIBITORS” (SCHERING CORPORATION, priority 1998, dated 2000).
Like-named read-outs stand apart in the source and are kept apart here.

Columns and labels:
Human tumor cells = experiment: Soft Agar Assay (anchorage-independent growth, colony count after MTT staining); format: cell-based
Experimental: Anchorage-independent growth is a characteristic of tumorigenic cell lines. Human tumor cells can be suspended in growth medium containing 0.3% agarose and an indicated concentration of a farnesyl transferase inhibitor. The solution can be overlayed onto growth medium solidified with 0.6% agarose containing the same concentration of farnesyl transferase inhibitor as the top layer. After the top layer is solidified, plates can be incubated for 10-16 days at 37°C under 5% CO2 to allow colony outgrowth. After incubation, the colonies can be stained by overlaying the agar with a solution of MTT (3-[4,5-dimethyl-thiazol-2-yl]-2,5-diphenyltetrazolium bromide, Thiazolyl blue) (1 mg/mL in PBS). Colonies can be counted and the IC50's can be determined.

[1] = biological target: farnesyl protein transferase (Homo sapiens, UniProt P49354+P49356); experiment: FPT IC50 (inhibition of farnesyl protein transferase, in vitro enzyme assay); format: biochemical; details: procedures of WO 95/10516
Experimental: FPT IC50 (inhibition of farnesyl protein transferase, in vitro enzyme assay) was determined following the assay procedures described in WO 95/10516, published April 20, 1995. GGPT IC50 (inhibition of geranylgeranyl protein transferase, in vitro enzyme assay), Cell Mat Assay, COS Cell IC50 (Cell-Based Assay), and anti-tumor activity (in vivo anti-tumor studies) could be determined by the assay procedures described in WO 95/10516. The disclosure of WO 95/10516 is incorporated herein by reference thereto.

[2] = colony outgrowth 10-16 days at 37°C under 5% CO2, read-out: Soft Agar IC50

| SMILES | IC50 (Human tumor cells; [2]) [nM] | IC50 (Human tumor cells; read-out: Soft Agar IC50) [nM] | IC50 [1] [nM] |
| --- | --- | --- | --- |
| CC(C)(C)OC(=O)N1CCN(C2c3ccc(Cl)cc3CCc3cc(Br)cnc32)CC1C(=O)N1CCCC(Cn2ccnc2)C1 (stereo not drawn) [Example 10] | 0.5 to 30 | – | – |
| CC(C)OC(=O)N1CCN(C2c3ccc(Cl)cc3CCc3cc(Br)cnc32)CC1C(=O)N1CCCC(Cn2ccnc2)C1 (stereo not drawn) [Example 14] | 0.5 to 30 | – | – |
| O=C(C1CN(C2c3ccc(Cl)cc3CCc3cc(Br)cnc32)CCN1C(=O)OC1CCCCC1)N1CCCC(Cn2ccnc2)C1 (stereo not drawn) [Example 15] | 0.5 to 30 | – | – |
| CC(C)(C)NC(=O)N1CCN(C2c3ccc(Cl)cc3CCc3cc(Br)cnc32)CC1C(=O)N1CCCC(Cn2ccnc2)C1 (stereo not drawn) [Example 16] | 0.5 to 30 | – | – |
| CC(C)NC(=O)N1CCN([C@@H]2c3ccc(Cl)cc3CCc3cc(Br)cnc32)C[C@@H]1C(=O)N1CCC[C@@H](Cn2ccnc2)C1 [Example 17] | 0.5 to 30 | – | – |
| CC(C)(C)NC(=O)N1CCN([C@@H]2c3ccc(Cl)cc3CCc3cc(Br)cnc32)C[C@@H]1C(=O)N1CCC[C@H](Cn2ccnc2)C1 [Example 18] | 0.5 to 30 | – | – |
| CC(C)OC(=O)N1CCN([C@@H]2c3ccc(Cl)cc3CCc3cc(Br)cnc32)C[C@@H]1C(=O)N1CCC[C@H](Cn2ccnc2)C1 [Example 19] | 0.5 to 30 | – | – |
| CC(C)(C)OC(=O)N1CCN(C2c3ccc(Cl)cc3CCc3cc(Br)cnc32)C[C@@H]1C(=O)N1CCCCC1CCn1ccnc1 (stereo partly drawn) [Example 74, 1,1-DIMETHYLETHYL-4-(3-BROMO-8-CHLORO-6,11-DIHYDRO-5H-BENZO[5,6]CYCLOHEPTA[1,2-b]PYRIDIN-11-YL)-2(R)-[[2-[2-(1H-IMIDAZOL-1-YL)ETHYL]-1-PIPERIDINYL]CARBONYL]-1-PIPERAZINECARBOXYLATE] | – | 0.5 to 30 | 0.04 to 2.7 |
| CC(C)(C)OC(=O)N1CCN([C@H]2c3ccc(Cl)cc3CCc3cc(Br)cnc32)C[C@@H]1C(=O)N1CCCCC1CCn1ccnc1 (stereo partly drawn) [Example 138, 1,1-DIMETHYLETHYL 4-(3-BROMO-8-CHLORO-6,11-DIHYDRO-5H-BENZO[5,6]CYCLOHEPTA[1,2-b]PYRIDIN-11(S)-YL)-2(R)-[[2-[2-(1H-IMIDAZOL-1-YL)ETHYL]-1-PIPERIDINYL]CARBONYL]-1-PIPERAZINECARBOXYLATE] | – | 0.5 to 30 | 0.04 to 2.7 |
| CC(C)(C)OC(=O)N1CCN(C2c3ccc(Cl)cc3CCc3cc(Br)cnc32)C[C@@H]1C(=O)N1CCCCC1CCCn1ccnc1 (stereo partly drawn) [Example 145, 1,1-DIMETHYLETHYL 4-(3-BROMO-8-CHLORO-6,11-DIHYDRO-5H-BENZO[5,6]CYCLOHEPTA[1,2-b]PYRIDIN-11-YL)-2(R)-[[2-[3-(1H-IMIDAZOL-1-YL)PROPYL]-1-PIPERIDINYL]CARBONYL]-1-PIPERAZINECARBOXYLATE] | – | 0.5 to 30 | 0.04 to 2.7 |
| Cc1cn(CC2CCCN(C(=O)C3CN(C4c5ccc(Cl)cc5CCc5cc(Br)cnc54)CCN3C(=O)Cc3ccc(F)cc3)C2)cn1 (stereo not drawn) [Example 197] | 0.05 to 30 | – | 0.04 to 2.7 |
| Cc1cn(CC2CCCN(C(=O)C3CN(C4c5ccc(Cl)cc5CCc5ccc[n+]([O-])c54)CCN3C(=O)OC3CCCCC3)C2)cn1 (stereo not drawn) [Example 387] | 0.05 to 30 | – | 0.04 to 2.7 |
| Cc1cn(CC2CCCN(C(=O)C3CN(C4c5ccc(Cl)cc5CCc5cccnc54)CCN3C(=O)OCC(C)(C)C)C2)cn1 (stereo not drawn) [Example 411] | 0.05 to 30 | – | 0.04 to 2.7 |
| Cc1cn(C[C@@H]2CCCN(C(=O)[C@H]3CN(C4c5ccccc5CCc5ccccc54)CCN3C(=O)OC3CCCCC3)C2)cn1 [Example 414] | 0.05 to 30 | – | 0.04 to 2.7 |
